Laboratory results taken from ChEMBL document CHEMBL1147885, “A novel noninvasive method for assessing glutathione-conjugate efflux systems in the brain” (Bioorg Med Chem, 2007).

Assays:
Format in all cases: ADME, organism-based
Brain [1] = assay: Metabolic stability in intravenously dosed Wistar rat brain assessed as metabolite level after 15 mins by HPLC; conditions: in vivo, iv, 0.25 h
Brain [2] = assay: Metabolic stability in intravenously dosed Wistar rat brain assessed as radioactivity remained in unchanged form after 15 mins by TLC; conditions: in vivo, iv, 0.25 h
Brain [3] = assay: Metabolic stability in intravenously dosed Wistar rat brain assessed as metabolite level after 60 mins by HPLC; conditions: in vivo, iv, 1 h

Stability (Brain [1]): 80%
Stability (Brain [2]): 80%
Stability (Brain [3]): 80%
Compound: [14CH3]n1cnc2ncnc(Cl)c21
